Data taken from ChEMBL document CHEMBL1201862, “PubChem BioAssay data set” (2004).
Calls of active or inactive are those of the source.

Legend:
[1] = HEK-293T viability loss after treatment – luminescence, T-cell screen hits, cytotoxicity control for TCR NF-kB inhibitor project, dose response (AID 489026); format: functional, cell-based;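 note: cells exposed to compound about 14 hours before the viability readout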
[2] = molecular target: T1, Short transient receptor potential channel 4 (Mus musculus, UniProt Q9QUQ5); experiment: calcium entry via TRPC4 opening agents – cell-based, HEK293 TRPC4/mu-opioid, Fluo-4 calcium, dose response (AID 434937); format: functional
T1 sequence (Q9QUQ5 whole entry): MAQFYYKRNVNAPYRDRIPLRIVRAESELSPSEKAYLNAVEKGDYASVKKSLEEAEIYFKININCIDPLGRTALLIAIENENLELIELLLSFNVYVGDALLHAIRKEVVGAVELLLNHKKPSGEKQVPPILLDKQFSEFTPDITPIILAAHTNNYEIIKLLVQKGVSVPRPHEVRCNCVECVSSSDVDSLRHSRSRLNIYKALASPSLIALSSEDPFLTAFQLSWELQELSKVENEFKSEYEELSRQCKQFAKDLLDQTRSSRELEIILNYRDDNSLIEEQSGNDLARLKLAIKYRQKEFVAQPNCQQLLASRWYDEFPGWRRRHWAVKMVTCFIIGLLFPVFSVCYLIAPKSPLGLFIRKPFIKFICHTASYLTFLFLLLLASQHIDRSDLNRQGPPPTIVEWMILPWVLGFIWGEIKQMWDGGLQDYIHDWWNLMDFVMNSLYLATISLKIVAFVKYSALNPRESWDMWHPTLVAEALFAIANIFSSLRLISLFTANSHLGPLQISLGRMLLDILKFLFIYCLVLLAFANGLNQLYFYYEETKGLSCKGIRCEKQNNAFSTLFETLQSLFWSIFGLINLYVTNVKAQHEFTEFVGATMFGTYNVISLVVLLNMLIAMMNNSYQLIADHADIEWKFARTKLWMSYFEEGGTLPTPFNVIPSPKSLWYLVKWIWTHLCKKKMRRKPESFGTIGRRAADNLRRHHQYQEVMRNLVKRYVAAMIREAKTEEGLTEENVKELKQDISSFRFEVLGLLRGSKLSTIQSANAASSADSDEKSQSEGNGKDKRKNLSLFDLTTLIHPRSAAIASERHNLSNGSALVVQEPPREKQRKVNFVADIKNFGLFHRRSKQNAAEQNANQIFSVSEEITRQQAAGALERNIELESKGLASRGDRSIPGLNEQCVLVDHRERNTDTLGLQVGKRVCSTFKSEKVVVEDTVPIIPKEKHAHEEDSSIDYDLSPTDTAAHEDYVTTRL

[3] = HEK-293T cell viability reduction – luminescence, B-cell screen hits, cytotoxicity control for BCR NF-kB inhibitor project, dose response (AID 489021); format: functional, cell-based;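 note: HEK-293T cells carrying an NF-kB luciferase reporter; cells exposed to compound for about 14 hours before viability readout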
[4] = molecular target: T2, Estrogen receptor (Homo sapiens, UniProt P03372);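 note: potency for inhibiting coactivator peptide recruitment to the receptor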
T2 sequence (P03372 whole entry): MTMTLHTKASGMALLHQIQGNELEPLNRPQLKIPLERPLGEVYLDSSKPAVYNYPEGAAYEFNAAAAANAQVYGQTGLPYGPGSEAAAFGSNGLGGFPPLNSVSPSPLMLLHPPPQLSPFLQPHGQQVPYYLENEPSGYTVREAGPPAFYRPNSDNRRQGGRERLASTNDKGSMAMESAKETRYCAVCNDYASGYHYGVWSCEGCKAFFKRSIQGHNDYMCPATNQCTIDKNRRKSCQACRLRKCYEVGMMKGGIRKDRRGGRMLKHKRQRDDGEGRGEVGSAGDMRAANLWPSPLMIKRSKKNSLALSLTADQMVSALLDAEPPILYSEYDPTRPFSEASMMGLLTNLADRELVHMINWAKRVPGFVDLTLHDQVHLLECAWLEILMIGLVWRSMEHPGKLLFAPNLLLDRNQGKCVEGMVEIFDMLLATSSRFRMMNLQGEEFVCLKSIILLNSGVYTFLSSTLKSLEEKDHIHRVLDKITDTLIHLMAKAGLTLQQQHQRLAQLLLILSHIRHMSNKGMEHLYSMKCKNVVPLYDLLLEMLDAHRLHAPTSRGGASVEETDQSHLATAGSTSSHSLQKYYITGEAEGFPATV

[5] = A cytotoxicity screen of small molecule inhibitors of the PhoP region in Salmonella typhi identified in the primary screen. [Related pubchem assays: 1850, 1864, 1985 ]; format: functional
[6] = molecular target: Voltage-dependent T-type calcium channel subunit alpha-1H (Homo sapiens, UniProt O95180); format: functional;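 note: channel activity triggered by adding a high calcium stimulation buffer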
[7] = molecular target: Eukaryotic translation initiation factor 4E (Mus musculus, UniProt P63073); experiment: blockers of eIF4G binding by eIF4E – biochemical, TR-FRET, dose response (AID 855); format: functional;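 note: potency for disrupting eIF4E binding to eIF4GI seen as loss of FRET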
[8] = molecular target: Peroxisome proliferator-activated receptor gamma/Nuclear receptor coactivator 1 (Homo sapiens, UniProt P37231); experiment: TR-FRET dose response biochemical High Throughput Screening assay for agonists of the steroid receptor coactivator 1 (SRC-1) recruitment by the peroxisome proliferator-activated receptor gamma (PPAR gamma): non-selective agonists. [Related pubchem assays (depositor defined):AID1300, AID1808, AID504735, AID631]; format: protein assay
[9] = molecular target: Peroxisome proliferator-activated receptor gamma/Nuclear receptor coactivator 3 (Homo sapiens, UniProt P37231); experiment: TR-FRET dose response biochemical High Throughput Screening assay for agonists of the steroid receptor coactivator 3 (SRC-3) recruitment by the peroxisome proliferator-activated receptor gamma (PPAR gamma): non-selective agonists. [Related pubchem assays: 1301 (Confirmation screen.), 1048 (Primary screen.)]; format: functional
[10] = molecular target: Peroxisome proliferator-activated receptor gamma/Nuclear receptor coactivator 2 (Homo sapiens, UniProt P37231); experiment: TR-FRET dose response biochemical High Throughput Screening assay for agonists of the steroid receptor coactivator 2 (SRC-2) recruitment by the peroxisome proliferator-activated receptor gamma (PPAR gamma): non-selective agonists. [Related pubchem assays: 1297, 1032 ]; format: functional
[11] = NIH-3T3 fibroblast cytotoxicity, dose response, cytotoxicity control, cell-based, fluorescence, Alamar Blue, secondary assay (AID 2327); format: functional;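 note: NIH-3T3 mouse fibroblasts cultured with fluconazole at 8 µg/mL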
[12] = test system: Streptococcus sp. 'group A'; experiment: Streptococcus pyogenes SK(-)GAS viability under kanamycin – luminescence, BacTiterGlo, confirmation, counter-screen for streptokinase expression inhibitor project, dose response (AID 1900); format: functional, organism-based
[13] = fluconazole-exposed Candida albicans growth modulators – fluorescence, retest, confirmation (AID 2467); format: functional, cell-based
[14] = test system: Streptococcus; experiment: GAS UMAA2166 growth inhibition – luminescence, BacTiterGlo, counter-screen for streptokinase expression inhibitor project, dose response (AID 1915); format: functional, organism-based;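 note: potency for reduction of bacterial viability or growth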
[15] = molecular target: Cytochrome P450 2D6 (Homo sapiens, UniProt P10635);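 note: CYP2D6 member of a cytochrome P450 panel assay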
[16] = test system: H9c2; experiment: cells; format: functional, cell-based; conditions: Rattus norvegicus, H9c2, Myocardium;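 note: confirmatory concentration-response retest of ultra-high-throughput screening hits for modulation of myocardial damage; cell death induced by hydrogen peroxide oxidative stress; compound pretreatment for 60 min then peroxide exposure for 2 h; potency is for protecting the cells against peroxide damage rather than for killing them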
[17] = HPDE-C7 pancreatic duct cell viability loss – fluorescence, HTS (AID 430); format: functional, cell-based; conditions: Homo sapiens
[18] = viability loss of HPDE-C7K cells – cell-based, fluorescence, HTS, primary screen (AID 431); format: functional; conditions: Homo sapiens
[19] = molecular target: T3, Endoribonuclease toxin MazF (Escherichia coli K-12, UniProt P0AE70); experiment: activation of MazEF endoribonuclease cleavage – biochemical, fluorescence, single-stranded RNA substrate, uHTS hits, dose response (AID 588481); format: functional
T3 sequence (P0AE70 whole entry): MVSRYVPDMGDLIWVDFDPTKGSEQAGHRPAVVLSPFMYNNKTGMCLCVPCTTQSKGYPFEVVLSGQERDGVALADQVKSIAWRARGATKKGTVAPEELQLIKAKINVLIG

[20] = test system: INS1; experiment: INS-1E survival protection against cytokine death – cell-based, luminescence, retest, dose response (AID 449756); format: functional; conditions: Rattus norvegicus;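 note: cell death triggered by IL-1 beta plus TNF-alpha plus IFN-gamma mixture; protective hits raise ATP signal compared with cytokine alone wells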
[21] = molecular target: T3, Endoribonuclease toxin MazF; experiment: substrate-only fluorescence increase artefacts – biochemical, single-stranded RNase substrate, counter-screen for MazEF activator project, dose response (AID 588502); format: functional
[22] = THP-1 cell cytotoxicity, dose response, cytotoxicity control for non-replicating M. tuberculosis project (AID 489025); format: functional
[23] = cells; format: functional
[24] = molecular target: Cytochrome P450 3A4 (Homo sapiens, UniProt P08684); conditions: Potency;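 note: confirmatory qHTS run detecting inhibitors and substrates of CYP3A4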
Sequence of Cytochrome P450 3A4 (P08684 whole entry): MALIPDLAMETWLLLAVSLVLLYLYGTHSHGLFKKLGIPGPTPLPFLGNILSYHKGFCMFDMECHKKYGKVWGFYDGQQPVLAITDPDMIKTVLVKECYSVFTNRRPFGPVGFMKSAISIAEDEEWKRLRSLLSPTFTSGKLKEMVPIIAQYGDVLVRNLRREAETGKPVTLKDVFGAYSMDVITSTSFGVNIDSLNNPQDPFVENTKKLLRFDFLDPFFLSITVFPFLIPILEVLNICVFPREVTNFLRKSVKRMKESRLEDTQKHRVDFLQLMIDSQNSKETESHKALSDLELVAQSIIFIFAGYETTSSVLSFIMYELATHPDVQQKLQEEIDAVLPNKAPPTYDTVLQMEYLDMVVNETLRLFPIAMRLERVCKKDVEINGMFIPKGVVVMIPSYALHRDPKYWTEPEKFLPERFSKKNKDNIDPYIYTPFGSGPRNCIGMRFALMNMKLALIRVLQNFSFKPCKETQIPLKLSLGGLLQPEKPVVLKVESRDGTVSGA

Sequence of Voltage-dependent T-type calcium channel subunit alpha-1H (O95180 whole entry): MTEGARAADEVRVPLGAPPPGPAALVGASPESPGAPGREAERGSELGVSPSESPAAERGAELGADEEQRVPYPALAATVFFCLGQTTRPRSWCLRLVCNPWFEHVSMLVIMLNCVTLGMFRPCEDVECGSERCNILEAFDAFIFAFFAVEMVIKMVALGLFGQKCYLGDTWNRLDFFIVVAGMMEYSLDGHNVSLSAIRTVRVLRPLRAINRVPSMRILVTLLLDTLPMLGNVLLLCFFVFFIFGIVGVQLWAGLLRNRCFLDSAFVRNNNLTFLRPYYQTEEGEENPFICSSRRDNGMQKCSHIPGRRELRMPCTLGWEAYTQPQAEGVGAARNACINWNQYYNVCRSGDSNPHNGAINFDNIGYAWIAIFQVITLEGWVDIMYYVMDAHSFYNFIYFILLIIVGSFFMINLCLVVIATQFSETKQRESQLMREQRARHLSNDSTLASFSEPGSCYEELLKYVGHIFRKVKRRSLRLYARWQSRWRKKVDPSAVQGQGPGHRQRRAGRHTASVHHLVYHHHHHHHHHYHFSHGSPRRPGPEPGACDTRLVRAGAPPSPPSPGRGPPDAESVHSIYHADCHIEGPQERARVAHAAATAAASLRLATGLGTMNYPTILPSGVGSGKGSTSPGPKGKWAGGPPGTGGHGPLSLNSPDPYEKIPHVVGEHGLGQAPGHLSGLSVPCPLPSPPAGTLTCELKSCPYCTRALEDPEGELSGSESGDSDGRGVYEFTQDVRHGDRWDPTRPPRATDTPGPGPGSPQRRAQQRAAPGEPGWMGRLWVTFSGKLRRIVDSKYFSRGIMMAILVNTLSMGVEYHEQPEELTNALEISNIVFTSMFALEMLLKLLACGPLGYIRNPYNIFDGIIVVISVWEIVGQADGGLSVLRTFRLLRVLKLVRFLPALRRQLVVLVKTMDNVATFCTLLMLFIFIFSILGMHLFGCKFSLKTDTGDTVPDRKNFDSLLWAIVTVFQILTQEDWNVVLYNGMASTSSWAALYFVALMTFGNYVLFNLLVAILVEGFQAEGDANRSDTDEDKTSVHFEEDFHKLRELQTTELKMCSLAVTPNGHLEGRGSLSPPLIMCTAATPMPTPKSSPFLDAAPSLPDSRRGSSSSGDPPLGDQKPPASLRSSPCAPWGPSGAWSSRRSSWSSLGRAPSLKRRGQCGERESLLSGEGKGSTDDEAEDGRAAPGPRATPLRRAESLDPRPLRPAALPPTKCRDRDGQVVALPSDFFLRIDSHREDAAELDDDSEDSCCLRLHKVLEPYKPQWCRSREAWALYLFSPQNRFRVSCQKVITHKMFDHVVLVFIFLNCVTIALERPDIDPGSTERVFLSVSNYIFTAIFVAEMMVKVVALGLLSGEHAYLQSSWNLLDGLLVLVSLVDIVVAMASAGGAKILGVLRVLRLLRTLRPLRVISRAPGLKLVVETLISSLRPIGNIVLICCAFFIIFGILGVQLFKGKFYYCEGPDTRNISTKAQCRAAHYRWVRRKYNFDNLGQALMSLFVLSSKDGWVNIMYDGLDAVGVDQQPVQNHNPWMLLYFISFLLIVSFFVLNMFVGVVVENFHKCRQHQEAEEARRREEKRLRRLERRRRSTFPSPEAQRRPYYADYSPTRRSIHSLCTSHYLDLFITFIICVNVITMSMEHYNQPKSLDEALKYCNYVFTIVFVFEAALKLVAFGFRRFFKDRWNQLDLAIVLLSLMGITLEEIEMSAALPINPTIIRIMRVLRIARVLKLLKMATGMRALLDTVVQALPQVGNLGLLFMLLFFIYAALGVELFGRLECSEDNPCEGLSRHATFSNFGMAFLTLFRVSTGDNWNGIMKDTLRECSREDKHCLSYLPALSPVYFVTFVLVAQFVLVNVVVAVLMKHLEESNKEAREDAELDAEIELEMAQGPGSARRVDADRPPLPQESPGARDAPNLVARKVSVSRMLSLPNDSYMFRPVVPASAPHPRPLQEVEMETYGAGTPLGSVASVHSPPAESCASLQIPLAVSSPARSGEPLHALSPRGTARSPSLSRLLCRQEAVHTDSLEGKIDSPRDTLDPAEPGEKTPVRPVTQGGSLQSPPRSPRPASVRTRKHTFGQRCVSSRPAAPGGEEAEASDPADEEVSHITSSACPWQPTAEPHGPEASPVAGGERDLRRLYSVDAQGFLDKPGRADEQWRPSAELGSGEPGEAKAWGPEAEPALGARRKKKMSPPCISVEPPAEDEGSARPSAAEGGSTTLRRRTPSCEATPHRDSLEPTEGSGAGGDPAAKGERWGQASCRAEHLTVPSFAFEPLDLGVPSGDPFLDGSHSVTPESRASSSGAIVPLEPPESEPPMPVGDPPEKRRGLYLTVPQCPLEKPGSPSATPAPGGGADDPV
Sequence of Peroxisome proliferator-activated receptor gamma/Nuclear receptor coactivator 2 (P37231 whole entry): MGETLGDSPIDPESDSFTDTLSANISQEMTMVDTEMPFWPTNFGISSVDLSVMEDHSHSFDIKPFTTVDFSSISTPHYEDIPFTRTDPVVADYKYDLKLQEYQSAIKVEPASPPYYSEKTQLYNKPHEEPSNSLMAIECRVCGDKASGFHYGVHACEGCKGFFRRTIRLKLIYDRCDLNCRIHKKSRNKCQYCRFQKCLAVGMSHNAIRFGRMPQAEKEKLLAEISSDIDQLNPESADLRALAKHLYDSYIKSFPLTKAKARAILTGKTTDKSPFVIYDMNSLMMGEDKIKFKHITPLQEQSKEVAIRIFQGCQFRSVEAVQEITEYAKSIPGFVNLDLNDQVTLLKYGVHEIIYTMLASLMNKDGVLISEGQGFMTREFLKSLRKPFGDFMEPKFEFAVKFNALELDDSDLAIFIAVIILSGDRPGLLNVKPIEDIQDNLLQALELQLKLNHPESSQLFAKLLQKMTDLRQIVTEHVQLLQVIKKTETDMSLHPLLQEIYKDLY
Sequence of Peroxisome proliferator-activated receptor gamma/Nuclear receptor coactivator 2 (Q15596 whole entry, further chain): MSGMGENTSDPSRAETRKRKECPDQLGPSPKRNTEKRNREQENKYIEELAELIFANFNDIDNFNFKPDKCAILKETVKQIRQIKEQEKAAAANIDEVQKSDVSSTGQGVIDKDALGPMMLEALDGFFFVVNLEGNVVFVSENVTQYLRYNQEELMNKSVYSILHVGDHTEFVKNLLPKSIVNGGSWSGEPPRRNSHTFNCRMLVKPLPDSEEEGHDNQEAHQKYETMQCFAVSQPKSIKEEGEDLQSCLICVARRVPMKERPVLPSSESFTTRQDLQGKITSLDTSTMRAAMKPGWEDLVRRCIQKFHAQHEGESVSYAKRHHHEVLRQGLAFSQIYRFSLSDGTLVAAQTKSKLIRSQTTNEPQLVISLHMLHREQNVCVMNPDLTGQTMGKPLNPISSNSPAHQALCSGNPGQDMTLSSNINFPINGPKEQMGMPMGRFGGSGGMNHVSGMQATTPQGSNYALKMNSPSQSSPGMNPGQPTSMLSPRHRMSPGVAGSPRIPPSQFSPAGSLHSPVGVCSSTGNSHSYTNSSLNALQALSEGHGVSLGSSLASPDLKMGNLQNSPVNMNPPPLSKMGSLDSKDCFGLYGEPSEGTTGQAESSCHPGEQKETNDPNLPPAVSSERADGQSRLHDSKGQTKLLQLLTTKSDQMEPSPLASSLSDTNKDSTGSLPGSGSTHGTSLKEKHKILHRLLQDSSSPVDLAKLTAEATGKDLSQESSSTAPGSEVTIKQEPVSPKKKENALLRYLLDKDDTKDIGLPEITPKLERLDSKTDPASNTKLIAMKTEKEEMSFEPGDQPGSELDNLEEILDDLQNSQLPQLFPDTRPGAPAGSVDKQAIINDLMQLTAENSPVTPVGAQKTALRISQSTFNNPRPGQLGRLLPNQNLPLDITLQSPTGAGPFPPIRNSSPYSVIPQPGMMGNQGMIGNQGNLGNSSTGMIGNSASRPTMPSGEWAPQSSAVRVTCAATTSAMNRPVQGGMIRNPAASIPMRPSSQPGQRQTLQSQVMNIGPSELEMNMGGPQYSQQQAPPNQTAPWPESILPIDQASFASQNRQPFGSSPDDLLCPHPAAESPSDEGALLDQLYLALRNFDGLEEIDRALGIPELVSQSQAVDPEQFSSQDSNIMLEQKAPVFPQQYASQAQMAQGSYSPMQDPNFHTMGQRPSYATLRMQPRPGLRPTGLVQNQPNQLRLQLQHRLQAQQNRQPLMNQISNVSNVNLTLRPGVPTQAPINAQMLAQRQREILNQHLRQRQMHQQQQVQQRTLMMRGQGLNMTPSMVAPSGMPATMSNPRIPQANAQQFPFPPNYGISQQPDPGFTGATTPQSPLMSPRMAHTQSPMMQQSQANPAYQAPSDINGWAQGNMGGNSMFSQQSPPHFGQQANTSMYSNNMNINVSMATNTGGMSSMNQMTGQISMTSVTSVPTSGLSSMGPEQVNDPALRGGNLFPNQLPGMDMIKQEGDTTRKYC
Sequence of Eukaryotic translation initiation factor 4E (P63073 whole entry): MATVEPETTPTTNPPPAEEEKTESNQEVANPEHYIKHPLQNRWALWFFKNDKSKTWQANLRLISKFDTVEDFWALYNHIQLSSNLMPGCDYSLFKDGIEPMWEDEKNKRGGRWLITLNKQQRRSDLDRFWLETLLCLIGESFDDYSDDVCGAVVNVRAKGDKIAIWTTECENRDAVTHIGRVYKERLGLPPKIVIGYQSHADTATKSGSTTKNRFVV

## CCOC(=O)c1[nH]c(C)c(C(=O)Nc2cc(OC)ccc2OC)c1C
[1]
  IC50: > 80 µM (inactive)

## Cc1ccn(CC(=O)NC2CCCN(Cc3ccc(CC(C)C)cc3)C2)n1 (stereo not drawn)
[2]
  EC50: 1.68 µM (active)

## Cc1cc(-c2ccc(S(=O)(=O)N(C)c3ccc(C)c(C)c3)s2)on1
[1]
  IC50: > 80 µM (inactive)

## Cn1c(=O)cc(Nc2ccccc2)c2c(=O)n(-c3ccccc3)c(=O)n(-c3ccccc3)c21
[3]
  IC50: > 80 µM (inactive)

## COc1cc(C)c(S(=O)(=O)NCc2ccc3c(c2)OCO3)cc1C
[4]
  IC50: > 50 µM (not active)

## c1cnc2nc(-c3ccc4c(c3)OCO4)cn2c1
[5]
  EC50: > 50 µM (active)

## C=CCn1c(SC(C)C(=O)NCCC2=CCCCC2)nc2ccccc2c1=O (stereo not drawn)
[6]
  EC50: 3.01 µM (active)

## Cc1cc(CSc2ccccc2)ccc1NC(=O)c1cccc([N+](=O)[O-])c1
[7]
  IC50: > 64 µM (inactive)

## CSc1nccc(-c2nn(-c3ccc(C)cc3)ccc2=O)n1
[1]
  IC50: > 80 µM (inactive)

## CC(C)(C)n1nnnc1C(c1cccs1)N1CCCc2ccccc21 (stereo not drawn)
[6]
  EC50: 8.88 µM (active)

## O=C(OCn1nnc2ccccc2c1=O)c1cn(-c2ccccc2)nc1-c1cccnc1
[4]
  IC50: > 50 µM (not active)

## CCN1CCN(c2nc3ccccc3nc2C(C#N)S(=O)(=O)c2ccc(C)cc2)CC1 (stereo not drawn)
[5]
  EC50: > 50 µM (active)

## O=C(COc1ccc(Cl)cc1Cl)Nc1nc2n(n1)C(c1ccccc1)CC(=O)N2 (stereo not drawn)
[6]
  EC50: 1.98 µM (active)

## CC(C)(C)c1ccc(-c2nnc(SCC(=O)NC3CC3)o2)cc1
[3]
  IC50: > 80 µM (inactive)

## CCC(OC(=O)c1cc2sccc2n1C)C(=O)NCc1ccco1 (stereo not drawn)
[8]
  EC50: > 79.4 µM (inactive)
[9]
  EC50: > 79.4 µM (not active)
[10]
  EC50: > 26.5 µM (not active)

## N#CCCN1CCN(C(=S)c2ccc(-c3ccc(Cl)cc3)o2)CC1
[8]
  EC50: > 79.4 µM (inactive)
[9]
  EC50: > 79.4 µM (not active)
[10]
  EC50: > 79.4 µM (not active)

## O=C(CCc1ccccc1)NNC(=S)NC(=O)c1ccc(Cl)cc1
[11]
  EC50: > 150 µM (inconclusive)
[12]
  EC50: 0.335 µM (active)
[13]
  EC50: 2.16 µM (active)
[14]
  EC50: 6.45 µM (active)
[2]
  EC50: 5.31 µM (active)

## CCn1c(=O)cc(SCC(=O)N2CCN(c3ccccc3OC)CC2)c2ccccc21
[8]
  EC50: > 79.4 µM (inactive)
[9]
  EC50: > 79.4 µM (not active)
[10]
  EC50: > 79.4 µM (not active)

## COc1ccc(CCN(C(=O)C(F)(F)F)C(C(=O)NC2CCCC2)c2cccs2)cc1 (stereo not drawn)
[5]
  EC50: > 50 µM (active)
[15]
  AC50: 25.1 µM (inconclusive)

## COc1nnc(-c2ccc(C)c(S(=O)(=O)NCCO)c2)c2ccccc12
[4]
  IC50: > 50 µM (not active)
[16]
  IC50: > 79 µM (inactive)

## Cc1ccc(C2=CC(c3ccc(N(C)C)cc3)n3nnnc3N2)cc1 (stereo not drawn)
[17]
  EC50: 0.09 µM (active)
[18]
  EC50: 0.21 µM (active)
[19]
  EC50: > 99 µM (inactive)
[20]
  AC50: 6.88 µM (active)
[21]
  EC50: > 99 µM (inactive)

## Cc1cc(Cl)cc(C)c1OCCCCn1ccnc1
[22]
  CC50: 38.2 µM (active)
[2]
  EC50: 3.76 µM (active)
[23]
  IC50: 15.5 µM (active)

## COc1ccc(C(=O)C2CCCN(Cc3ccc(Sc4nncn4C)o3)C2)cc1F (stereo not drawn)
[2]
  EC50: 3.35 µM (active)

## C=C(C)[C@@H]1CC[C@]2(C(=O)O)CC[C@]3(C)[C@H](CC[C@@H]4[C@@]5(C)CCC(=O)C(C)(C)[C@@H]5CC[C@]43C)[C@@H]12 [BETUNOLIC ACID]
[12]
  EC50: 1.68 µM (active)
[14]
  EC50: 2.88 µM (active)
[3]
  IC50: > 80 µM (inactive)

## COc1cc(-c2cc(=O)c3c(O)c(OC)c(OC)c(OC)c3o2)cc(OC)c1OC [GARDENIN]
[3]
  IC50: > 80 µM (inactive)
[24]
  AC50: 3.16 µM (inconclusive)

## CCOc1ccc2ccccc2c1C(=O)N[C@@H]1C(=O)N2[C@@H]1SC(C)(C)[C@@H]2C(=O)O [NAFCILLIN SODIUM]
[5]
  EC50: > 50 µM (active)
[16]
  IC50: > 79 µM (inactive)
